Assay results from PubChem BioAssay AID330 (DTP/NCI, 2004).
“And” between values parts separate entries of the source, which are not always exact repeats. Equal values may be shown once. Toxic doses and inconclusive results are not listed.

System: P388 leukemia ip, CD2F1 mice, survival T/C
Assay: NCI In Vivo Anticancer Drug Screen. Data for tumor model P388 Leukemia (intraperitoneal) in CD2F1 (CDF1) mice
Conditions: endpoint: median survival time, higher = longer survival
How it was run: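 Mice carrying the transplanted tumor received test compound or vehicle. Survival was recorded in each group, and the value is the treated-group measurement divided by that of the vehicle-treated control group.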

[1] = dose: 50.0 mg/kg/injection, schedule: Q01DX009 (ip), vehicle: saline
[2] = dose: 100.0 mg/kg/injection, schedule: Q01DX009 (ip), vehicle: saline
[3] = dose: 200.0 mg/kg/injection, schedule: Q01DX009 (ip), vehicle: saline
[4] = dose: 50.0 mg/kg/injection, schedule: Q01DX005 (ip), vehicle: saline with Tween-80
[5] = dose: 100.0 mg/kg/injection, schedule: Q01DX005 (ip), vehicle: saline with Tween-80
[6] = dose: 200.0 mg/kg/injection, schedule: Q01DX005 (ip), vehicle: saline with Tween-80
[7] = dose: 50.0 mg/kg/injection, schedule: Q01DX009 (ip), vehicle: Klucel (hydroxypropylcellulose) (HPC)
[8] = dose: 100.0 mg/kg/injection, schedule: Q01DX009 (ip), vehicle: Klucel (hydroxypropylcellulose) (HPC)
[9] = dose: 50.0 mg/kg/injection, schedule: Q01DX005 (ip), vehicle: Klucel (hydroxypropylcellulose) (HPC)
[10] = dose: 100.0 mg/kg/injection, schedule: Q01DX005 (ip), vehicle: Klucel (hydroxypropylcellulose) (HPC)
[11] = dose: 200.0 mg/kg/injection, schedule: Q01DX005 (ip), vehicle: Klucel (hydroxypropylcellulose) (HPC)
[12] = dose: 25.0 mg/kg/injection, schedule: Q04DX003 (ip), vehicle: saline with Tween-80
[13] = dose: 50.0 mg/kg/injection, schedule: Q01DX009 (ip), vehicle: saline with Tween-80
[14] = dose: 100.0 mg/kg/injection, schedule: Q01DX009 (ip), vehicle: saline with Tween-80
[15] = dose: 100.0 mg/kg/injection, schedule: Q04DX003 (ip), vehicle: saline with Tween-80
[16] = dose: 200.0 mg/kg/injection, schedule: Q01DX009 (ip), vehicle: Klucel (hydroxypropylcellulose) (HPC)

With `CC(=O)NC(Cc1c[nH]c2ccccc12)C(=O)Oc1ccc([N+](=O)[O-])cc1` (stereo unspecified) the T/C [1] was 95 % of control, the T/C [2] was 98 % of control and the T/C [3] was 92 % of control.

`COC1=C(C)C(=O)C2=C(C1=O)C1C3CC4=C(C(=O)C(OC)=C(C)C4=O)C(CNC(=O)C(C)O)N3C(C#N)C(C2)N1C` (stereo unspecified) was tested, and the T/C (dose: 2.5 mg/kg/injection, schedule: Q01DX005 (ip), vehicle: Klucel (hydroxypropylcellulose) (HPC)) was 155 % of control and 161 % of control.

For `O=C1c2ccccc2C(=O)c2c(OCCOCCO)cccc21`, the T/C [4] was 118 % of control, the T/C [5] was 112 % of control and the T/C [6] was 96 % of control.

`CN(C)C(=S)SSC(=S)N(C)C` was tested, and the T/C (dose: 12.5 mg/kg/injection, schedule: Q01DX009 (ip), vehicle: Klucel (hydroxypropylcellulose) (HPC)) was 119 % of control, the T/C (dose: 25.0 mg/kg/injection, schedule: Q01DX009 (ip), vehicle: Klucel (hydroxypropylcellulose) (HPC)) was 115 % of control and the T/C [7] was 101 % of control and 117 % of control. For the same compound, the T/C [8] was 118 % of control and 90 % of control.

`O=C1NC(O)c2cc(O)ccc2O1` (stereo unspecified) was tested, and the T/C [9] was 100 % of control, the T/C [10] was 100 % of control and the T/C [11] was 111 % of control.

In the case of `O=C(O)c1c(Cl)cccc1Cl`, the T/C (dose: 25.0 mg/kg/injection, schedule: Q01DX009 (ip), vehicle: saline with Tween-80) is reported as 109 % of control, the T/C [12] is reported as 100 % of control and the T/C [13] is reported as 100 % of control. For the same compound, the T/C (dose: 50.0 mg/kg/injection, schedule: Q04DX003 (ip), vehicle: saline with Tween-80) was 95 % of control, the T/C [14] was 100 % of control and the T/C [15] was 95 % of control.

With `CNC(=O)CCC(NS(=O)(=O)c1ccccc1)C(=O)O` (stereo unspecified) the T/C [9] was 107 % of control, the T/C [10] was 96 % of control and the T/C [11] was 95 % of control.

`CCOC(=O)C1=C(NC(C)=O)Sc2ccccc2C1` was tested, and the T/C [1] was 94 % of control, the T/C [2] was 103 % of control and the T/C [3] was 92 % of control.

In the case of `CC(C)(O)C(=O)N/N=C/c1ccc(Cl)cc1`, the T/C (dose: 60.0 mg/kg/injection, schedule: Q01DX005 (ip), vehicle: saline with Tween-80) is reported as 101 % of control, the T/C (dose: 120.0 mg/kg/injection, schedule: Q01DX005 (ip), vehicle: saline with Tween-80) is reported as 99 % of control and the T/C (dose: 240.0 mg/kg/injection, schedule: Q01DX005 (ip), vehicle: saline with Tween-80) is reported as 100 % of control.

`CCCCCCCCCCCCCCCc1ccc(C(=O)C[n+]2ccccc2)cc1` was tested, and the T/C (dose: 6.25 mg/kg/injection, schedule: Q04DX003 (ip), vehicle: saline with Tween-80) was 109 % of control, the T/C (dose: 12.5 mg/kg/injection, schedule: Q04DX003 (ip), vehicle: saline with Tween-80) was 118 % of control and the T/C (dose: 16.5 mg/kg/injection, schedule: Q04DX003 (ip), vehicle: saline with Tween-80) was 95 % of control. The T/C [12] was 100 % of control.

For `CC[n+]1ccc(C(=O)NN)cc1`, the T/C (dose: 12.5 mg/kg/injection, schedule: Q04DX002 (ip), vehicle: saline with Tween-80) was 97 % of control, the T/C (dose: 25.0 mg/kg/injection, schedule: Q04DX002 (ip), vehicle: saline with Tween-80) was 99 % of control and the T/C (dose: 50.0 mg/kg/injection, schedule: Q04DX002 (ip), vehicle: saline with Tween-80) was 105 % of control.

`CSc1nc(N)c(C(=O)NC2CCCCC2)s1` was tested, and the T/C [7] was 100 % of control, the T/C [8] was 100 % of control and the T/C [16] was 99 % of control.

With `Cc1cc(N)c(C)c(Br)c1C` the T/C [13] was 106 % of control, the T/C [14] was 99 % of control and the T/C (dose: 200.0 mg/kg/injection, schedule: Q01DX009 (ip), vehicle: saline with Tween-80) was 106 % of control.

With `COc1ccc(C2CC(=O)N(c3nccc(C)n3)C(=O)C2)cc1` the T/C (dose: 100.0 mg/kg/injection, schedule: Q04DX003 (ip), vehicle: saline) was 98 % of control, the T/C (dose: 200.0 mg/kg/injection, schedule: Q04DX003 (ip), vehicle: saline) was 99 % of control and the T/C (dose: 400.0 mg/kg/injection, schedule: Q04DX003 (ip), vehicle: saline) was 94 % of control.

With `Cc1ccc(Nc2n[nH]c(=S)s2)cc1C` the T/C [15] was 90 % of control, the T/C (dose: 200.0 mg/kg/injection, schedule: Q04DX003 (ip), vehicle: saline with Tween-80) was 90 % of control and the T/C (dose: 400.0 mg/kg/injection, schedule: Q04DX003 (ip), vehicle: saline with Tween-80) was 95 % of control.

With `COc1cc2cc3c4cc(OC)c(OC)cc4cc[n+]3c(C)c2cc1OC` the T/C (dose: 25.0 mg/kg/injection, schedule: Q01DX009 (ip), vehicle: other) was 155 % of control, the T/C (dose: 50.0 mg/kg/injection, schedule: Q01DX009 (ip), vehicle: other) was 152 % of control and 169 % of control and 178 % of control and the T/C (dose: 50.0 mg/kg/injection, schedule: Q01DX009 (ip), vehicle: saline sonified) was 109 % of control. The T/C (dose: 50.0 mg/kg/injection, schedule: Q04DX003 (ip), vehicle: other) was 156 % of control and 158 % of control, the T/C (dose: 100.0 mg/kg/injection, schedule: Q01DX009 (ip), vehicle: other) was 172 % of control and 189 % of control and 198 % of control and the T/C (dose: 100.0 mg/kg/injection, schedule: Q01DX009 (ip), vehicle: saline sonified) was 109 % of control. The T/C (dose: 100.0 mg/kg/injection, schedule: Q01DX009 (oral), vehicle: saline) was 104 % of control, the T/C (dose: 100.0 mg/kg/injection, schedule: Q04DX003 (ip), vehicle: other) was 153 % of control and 169 % of control and 177 % of control and the T/C (dose: 200.0 mg/kg/injection, schedule: Q01DX001 (oral), vehicle: saline) was 104 % of control. For the same compound, the T/C (dose: 200.0 mg/kg/injection, schedule: Q01DX009 (ip), vehicle: other) was 153 % of control and 162 % of control, the T/C (dose: 200.0 mg/kg/injection, schedule: Q01DX009 (ip), vehicle: saline sonified) was 109 % of control and the T/C (dose: 200.0 mg/kg/injection, schedule: Q01DX009 (oral), vehicle: saline) was 104 % of control. For the same compound, the T/C (dose: 200.0 mg/kg/injection, schedule: Q04DX003 (ip), vehicle: other) was 166 % of control (2×) and 199 % of control, the T/C (dose: 200.0 mg/kg/injection, schedule: Q04DX003 (oral), vehicle: saline) was 104 % of control and the T/C (dose: 400.0 mg/kg/injection, schedule: Q01DX001 (oral), vehicle: saline) was 100 % of control. The T/C (dose: 400.0 mg/kg/injection, schedule: Q01DX009 (ip), vehicle: other) was 182 % of control, the T/C (dose: 400.0 mg/kg/injection, schedule: Q01DX009 (ip), vehicle: saline sonified) was 90 % of control and the T/C (dose: 400.0 mg/kg/injection, schedule: Q01DX009 (oral), vehicle: saline) was 100 % of control. The T/C (dose: 400.0 mg/kg/injection, schedule: Q04DX003 (ip), vehicle: other) was 161 % of control and 165 % of control and 191 % of control, the T/C (dose: 400.0 mg/kg/injection, schedule: Q04DX003 (ip), vehicle: saline sonified) was 150 % of control and the T/C (dose: 400.0 mg/kg/injection, schedule: Q04DX003 (oral), vehicle: saline) was 104 % of control. For the same compound, the T/C (dose: 800.0 mg/kg/injection, schedule: Q01DX001 (oral), vehicle: saline) was 104 % of control and the T/C (dose: 800.0 mg/kg/injection, schedule: Q04DX003 (oral), vehicle: saline) was 109 % of control.

`Cc1ccc(NC(=O)CO)cc1Cl` was tested, and the T/C [1] was 103 % of control, the T/C [2] was 103 % of control and the T/C [3] was 116 % of control.

With `NC(=O)C1CCCN(C2OC(COP(=O)(O)OP(=O)(O)OCC3OC(n4cnc5c(=O)[nH]c(N)nc54)C(O)C3O)C(O)C2O)C1` (stereo unspecified) the T/C [4] was 100 % of control, the T/C [5] was 104 % of control and the T/C [6] was 100 % of control.

For `NCC1CC2CCC1CC2` (stereo unspecified), the T/C (dose: 12.5 mg/kg/injection, schedule: Q01DX005 (ip), vehicle: saline with Tween-80) was 99 % of control, the T/C (dose: 25.0 mg/kg/injection, schedule: Q01DX005 (ip), vehicle: saline with Tween-80) was 100 % of control and the T/C [4] was 100 % of control and 102 % of control.

In the case of `c1ccc2c(c1)ccc1c(NCCCCCCNc3c4ccccc4nc4c3ccc3ccccc34)c3ccccc3nc12`, the T/C [7] is reported as 93 % of control, the T/C [8] is reported as 96 % of control and the T/C [16] is reported as 105 % of control.

For `O=C1NC(=O)C(C2CC2)(C2CC2)N1`, the T/C [4] was 103 % of control, the T/C [5] was 101 % of control and the T/C [6] was 101 % of control.

In the case of `BrC[P+](CBr)(CBr)CBr`, the T/C (dose: 12.5 mg/kg/injection, schedule: Q01DX009 (ip), vehicle: saline) is reported as 151 % of control, the T/C (dose: 25.0 mg/kg/injection, schedule: Q01DX009 (ip), vehicle: saline) is reported as 150 % of control and the T/C [4] is reported as 114 % of control and 117 % of control. The T/C [13] was 151 % of control, the T/C [1] was 163 % of control and the T/C [5] was 123 % of control. The T/C [14] was 157 % of control.

In the case of `CCOc1ccc(/C=N/NC(=O)C(=O)N/N=C/c2ccc(OCC)c(OCC)c2)cc1OCC`, the T/C (dose: 6.25 mg/kg/injection, schedule: Q01DX005 (ip), vehicle: Klucel (hydroxypropylcellulose) (HPC)) is reported as 102 % of control and 95 % of control and 96 % of control, the T/C [7] is reported as 90 % of control and the T/C [16] is reported as 92 % of control.
